The values below come from ChEMBL document CHEMBL4251622, “Design, synthesis, and biological evaluation of polo-like kinase 1/eukaryotic elongation factor 2 kinase (PLK1/EEF2K) dual inhibitors for regulating breast cancer cells apoptosis and autophagy” (Eur J Med Chem, 2018).

The target in test [1] is T1, Eukaryotic elongation factor 2 kinase (Homo sapiens) (UniProt O00418).
T1 sequence (whole entry): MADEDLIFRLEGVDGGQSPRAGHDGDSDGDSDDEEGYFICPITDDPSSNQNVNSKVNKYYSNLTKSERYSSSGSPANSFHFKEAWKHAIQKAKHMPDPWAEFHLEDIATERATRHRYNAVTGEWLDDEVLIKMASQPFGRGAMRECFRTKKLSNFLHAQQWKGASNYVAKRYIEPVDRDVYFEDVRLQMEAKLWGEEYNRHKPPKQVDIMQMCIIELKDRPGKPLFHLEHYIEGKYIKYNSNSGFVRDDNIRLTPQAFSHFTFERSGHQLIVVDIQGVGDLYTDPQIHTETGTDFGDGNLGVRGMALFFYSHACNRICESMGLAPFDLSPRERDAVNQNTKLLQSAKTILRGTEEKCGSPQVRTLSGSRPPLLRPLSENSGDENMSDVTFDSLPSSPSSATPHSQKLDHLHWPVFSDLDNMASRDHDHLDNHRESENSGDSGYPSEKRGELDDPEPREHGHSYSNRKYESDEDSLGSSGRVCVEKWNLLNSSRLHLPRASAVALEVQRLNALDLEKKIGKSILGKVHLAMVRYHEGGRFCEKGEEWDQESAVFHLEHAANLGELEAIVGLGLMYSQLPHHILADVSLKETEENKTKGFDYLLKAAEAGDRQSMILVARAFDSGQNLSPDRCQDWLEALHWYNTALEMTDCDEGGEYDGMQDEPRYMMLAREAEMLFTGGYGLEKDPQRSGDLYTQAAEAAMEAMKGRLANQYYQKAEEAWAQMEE
Briefly: Inhibition of GST-tagged EEF2K (unknown origin) at 20 uM using biotinylated EEF2 peptide substrate by HTRF assay relative to control. (In general: In TR-FRET formats the signal depends on donor and acceptor labels being close together.)

The target of test [2] is Serine/threonine-protein kinase PLK1 (Homo sapiens, UniProt P53350). Briefly: Inhibition of full length human PLK1 using casein as substrate after 40 mins in presence of [gamma-33P]-ATP by radiometric assay.
Serine/threonine-protein kinase PLK1, sequence (P53350 whole entry): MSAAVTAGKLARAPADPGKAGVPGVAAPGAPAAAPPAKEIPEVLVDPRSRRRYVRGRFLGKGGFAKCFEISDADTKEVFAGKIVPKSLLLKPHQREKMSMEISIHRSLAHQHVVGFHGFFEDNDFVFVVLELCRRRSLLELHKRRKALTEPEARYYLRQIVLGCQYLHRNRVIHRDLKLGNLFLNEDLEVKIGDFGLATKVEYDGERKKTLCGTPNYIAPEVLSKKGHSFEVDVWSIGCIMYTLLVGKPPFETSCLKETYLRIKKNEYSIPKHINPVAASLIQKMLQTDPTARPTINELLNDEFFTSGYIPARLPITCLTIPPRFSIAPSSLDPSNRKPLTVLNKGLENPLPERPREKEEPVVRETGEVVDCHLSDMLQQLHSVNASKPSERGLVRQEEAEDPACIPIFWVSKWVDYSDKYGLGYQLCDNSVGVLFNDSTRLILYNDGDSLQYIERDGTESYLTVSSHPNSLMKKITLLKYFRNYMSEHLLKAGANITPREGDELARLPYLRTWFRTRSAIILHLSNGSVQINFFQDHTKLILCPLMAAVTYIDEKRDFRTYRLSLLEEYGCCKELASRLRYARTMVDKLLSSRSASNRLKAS
Test [3] concerns BT-483. Briefly: Cytotoxicity against human BT-483 cells after 24 hrs by MTT assay. The test is classed as functional, cell-based. The note with it: BT-483, 24 h. Background: Formazan colour is commonly taken as a measure of viable cells.
Test [4] concerns BT-483. Briefly: Induction of apoptosis in human BT-483 cells assessed as early apoptotic cells at 5 uM by Annexin V-FITC/propidium iodide staining based flow cytometry (reference value: 2.01%). The class given is functional. On the technique in general: A flow cytometer gives signals particle by particle.
In test [5] the test system is BT-483. Briefly: Upregulation of Bad protein expression in human BT-483 cells at 5 to 10 uM by Western blot analysis. The class given is functional, cell-based.
The target of test [6] is Tyrosine-protein kinase BTK (Homo sapiens) (UniProt Q06187). Briefly: Inhibition of wild-type human full length BTK (M1 to S659 residues) expressed in mammalian expression system assessed as residual activity at 1 uM by Kinomescan method relative to control.
Tyrosine-protein kinase BTK (Homo sapiens), sequence (Q06187 whole entry, the tested form may be a part): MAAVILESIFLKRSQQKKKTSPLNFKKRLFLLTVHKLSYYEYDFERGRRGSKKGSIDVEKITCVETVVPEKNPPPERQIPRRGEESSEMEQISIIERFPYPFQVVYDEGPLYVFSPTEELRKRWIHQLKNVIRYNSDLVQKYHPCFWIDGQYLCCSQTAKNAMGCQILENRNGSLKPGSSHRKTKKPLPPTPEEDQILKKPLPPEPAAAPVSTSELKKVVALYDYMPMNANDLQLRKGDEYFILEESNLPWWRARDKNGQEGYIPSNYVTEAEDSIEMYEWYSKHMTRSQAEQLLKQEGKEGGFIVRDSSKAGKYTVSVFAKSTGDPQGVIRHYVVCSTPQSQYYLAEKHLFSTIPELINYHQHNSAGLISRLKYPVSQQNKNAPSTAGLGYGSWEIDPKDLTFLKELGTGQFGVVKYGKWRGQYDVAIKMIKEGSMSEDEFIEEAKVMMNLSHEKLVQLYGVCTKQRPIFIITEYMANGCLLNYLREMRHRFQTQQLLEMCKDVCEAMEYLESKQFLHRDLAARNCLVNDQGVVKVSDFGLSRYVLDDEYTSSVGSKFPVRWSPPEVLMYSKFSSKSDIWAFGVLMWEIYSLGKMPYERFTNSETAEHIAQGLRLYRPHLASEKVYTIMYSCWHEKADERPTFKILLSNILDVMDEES
Test [7] deals with Cyclin-dependent kinase 3 (Homo sapiens) (UniProt Q00526). The test is described as follows: Inhibition of wild-type human full length CDK3 (M1 to H305 residues) expressed in bacterial expression system assessed as residual activity at 1 uM by Kinomescan method relative to control.
Cyclin-dependent kinase 3 (Homo sapiens), sequence (Q00526 whole entry, looked up, the tested form may be a part): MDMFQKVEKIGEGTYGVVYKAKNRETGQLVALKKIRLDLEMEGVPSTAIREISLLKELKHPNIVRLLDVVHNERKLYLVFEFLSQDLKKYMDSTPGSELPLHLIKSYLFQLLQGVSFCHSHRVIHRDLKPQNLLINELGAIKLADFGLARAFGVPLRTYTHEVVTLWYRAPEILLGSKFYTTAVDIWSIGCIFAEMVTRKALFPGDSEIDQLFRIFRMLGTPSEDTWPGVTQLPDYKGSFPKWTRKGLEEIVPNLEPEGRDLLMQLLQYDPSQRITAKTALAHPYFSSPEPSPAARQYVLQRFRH
For test [8], the target named is Cyclin-dependent kinase 7 (Homo sapiens) (UniProt P50613). The test is described as follows: Inhibition of wild-type human full length CDK7 (M1 to L344 residues) expressed in mammalian expression system assessed as residual activity at 1 uM by Kinomescan method relative to control.
Cyclin-dependent kinase 7 (Homo sapiens), sequence (P50613 whole entry, the tested form may be a part): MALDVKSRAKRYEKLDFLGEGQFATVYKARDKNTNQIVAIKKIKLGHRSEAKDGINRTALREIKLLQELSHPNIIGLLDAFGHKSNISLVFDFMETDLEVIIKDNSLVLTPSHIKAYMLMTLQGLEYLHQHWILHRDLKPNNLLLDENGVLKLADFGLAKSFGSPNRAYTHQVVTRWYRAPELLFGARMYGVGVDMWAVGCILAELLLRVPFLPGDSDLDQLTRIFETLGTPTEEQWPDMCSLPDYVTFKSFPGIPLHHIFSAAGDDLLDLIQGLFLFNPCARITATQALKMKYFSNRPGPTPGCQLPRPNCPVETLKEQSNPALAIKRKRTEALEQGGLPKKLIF
The target of test [9] is Phosphatidylinositol 4-phosphate 3-kinase C2 domain-containing subunit beta (Homo sapiens) (UniProt O00750). Briefly: Inhibition of wild-type human partial length PIK3C2B (M1 to L1634 residues) expressed in mammalian expression system assessed as residual activity at 1 uM by Kinomescan method relative to control.
Phosphatidylinositol 4-phosphate 3-kinase C2 domain-containing subunit beta (Homo sapiens), sequence (O00750 whole entry, the tested form may be a part): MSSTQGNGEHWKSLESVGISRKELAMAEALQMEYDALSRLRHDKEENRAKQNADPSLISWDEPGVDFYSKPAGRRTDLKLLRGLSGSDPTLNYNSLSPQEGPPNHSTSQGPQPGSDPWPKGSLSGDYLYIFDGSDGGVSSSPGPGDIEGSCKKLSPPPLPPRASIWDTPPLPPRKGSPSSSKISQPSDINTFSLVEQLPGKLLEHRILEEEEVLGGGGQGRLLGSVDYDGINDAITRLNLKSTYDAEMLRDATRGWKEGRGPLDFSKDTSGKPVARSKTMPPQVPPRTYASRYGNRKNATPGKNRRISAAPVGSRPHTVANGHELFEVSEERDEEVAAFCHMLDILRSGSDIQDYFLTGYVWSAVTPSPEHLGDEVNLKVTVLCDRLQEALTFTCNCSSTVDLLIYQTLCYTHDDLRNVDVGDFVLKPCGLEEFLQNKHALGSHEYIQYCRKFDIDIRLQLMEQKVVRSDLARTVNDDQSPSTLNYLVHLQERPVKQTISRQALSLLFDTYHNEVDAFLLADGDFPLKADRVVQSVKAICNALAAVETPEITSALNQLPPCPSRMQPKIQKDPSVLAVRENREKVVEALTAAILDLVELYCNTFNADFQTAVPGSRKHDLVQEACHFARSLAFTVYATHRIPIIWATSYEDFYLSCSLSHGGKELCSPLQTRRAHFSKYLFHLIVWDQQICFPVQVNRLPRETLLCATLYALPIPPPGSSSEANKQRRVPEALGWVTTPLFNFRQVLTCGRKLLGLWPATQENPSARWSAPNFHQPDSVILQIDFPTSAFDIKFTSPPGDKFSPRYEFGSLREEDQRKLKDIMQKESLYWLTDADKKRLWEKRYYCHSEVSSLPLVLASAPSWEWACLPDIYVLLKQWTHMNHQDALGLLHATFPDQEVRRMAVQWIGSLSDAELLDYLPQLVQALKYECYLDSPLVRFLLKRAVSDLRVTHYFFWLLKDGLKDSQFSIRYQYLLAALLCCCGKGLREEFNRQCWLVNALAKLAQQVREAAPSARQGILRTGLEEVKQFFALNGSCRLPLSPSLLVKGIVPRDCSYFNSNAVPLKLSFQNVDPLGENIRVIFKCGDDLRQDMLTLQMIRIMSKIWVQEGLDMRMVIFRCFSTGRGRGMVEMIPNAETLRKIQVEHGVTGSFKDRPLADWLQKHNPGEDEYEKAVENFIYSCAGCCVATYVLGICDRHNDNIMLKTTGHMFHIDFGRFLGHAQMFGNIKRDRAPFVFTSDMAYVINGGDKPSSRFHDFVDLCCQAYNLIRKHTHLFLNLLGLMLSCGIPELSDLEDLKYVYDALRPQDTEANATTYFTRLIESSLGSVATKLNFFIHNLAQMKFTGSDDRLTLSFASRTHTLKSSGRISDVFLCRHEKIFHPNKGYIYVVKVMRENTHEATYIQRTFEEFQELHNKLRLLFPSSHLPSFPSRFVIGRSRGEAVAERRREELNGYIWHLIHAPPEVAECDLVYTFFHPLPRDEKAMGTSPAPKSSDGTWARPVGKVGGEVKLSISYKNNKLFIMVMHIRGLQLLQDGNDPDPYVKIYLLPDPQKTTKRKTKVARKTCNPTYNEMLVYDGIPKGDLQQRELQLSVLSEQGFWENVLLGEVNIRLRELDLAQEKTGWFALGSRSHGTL
In test [10] the target is Non-receptor tyrosine-protein kinase TYK2 (Homo sapiens) (UniProt P29597). The test is described as follows: Inhibition of wild-type human partial length TYK2 JH1 catalytic domain (V877 to C1187 residues) expressed in mammalian expression system assessed as residual activity at 1 uM by Kinomescan method relative to control.
Non-receptor tyrosine-protein kinase TYK2 (Homo sapiens), sequence (P29597 whole entry, the tested form may be a part): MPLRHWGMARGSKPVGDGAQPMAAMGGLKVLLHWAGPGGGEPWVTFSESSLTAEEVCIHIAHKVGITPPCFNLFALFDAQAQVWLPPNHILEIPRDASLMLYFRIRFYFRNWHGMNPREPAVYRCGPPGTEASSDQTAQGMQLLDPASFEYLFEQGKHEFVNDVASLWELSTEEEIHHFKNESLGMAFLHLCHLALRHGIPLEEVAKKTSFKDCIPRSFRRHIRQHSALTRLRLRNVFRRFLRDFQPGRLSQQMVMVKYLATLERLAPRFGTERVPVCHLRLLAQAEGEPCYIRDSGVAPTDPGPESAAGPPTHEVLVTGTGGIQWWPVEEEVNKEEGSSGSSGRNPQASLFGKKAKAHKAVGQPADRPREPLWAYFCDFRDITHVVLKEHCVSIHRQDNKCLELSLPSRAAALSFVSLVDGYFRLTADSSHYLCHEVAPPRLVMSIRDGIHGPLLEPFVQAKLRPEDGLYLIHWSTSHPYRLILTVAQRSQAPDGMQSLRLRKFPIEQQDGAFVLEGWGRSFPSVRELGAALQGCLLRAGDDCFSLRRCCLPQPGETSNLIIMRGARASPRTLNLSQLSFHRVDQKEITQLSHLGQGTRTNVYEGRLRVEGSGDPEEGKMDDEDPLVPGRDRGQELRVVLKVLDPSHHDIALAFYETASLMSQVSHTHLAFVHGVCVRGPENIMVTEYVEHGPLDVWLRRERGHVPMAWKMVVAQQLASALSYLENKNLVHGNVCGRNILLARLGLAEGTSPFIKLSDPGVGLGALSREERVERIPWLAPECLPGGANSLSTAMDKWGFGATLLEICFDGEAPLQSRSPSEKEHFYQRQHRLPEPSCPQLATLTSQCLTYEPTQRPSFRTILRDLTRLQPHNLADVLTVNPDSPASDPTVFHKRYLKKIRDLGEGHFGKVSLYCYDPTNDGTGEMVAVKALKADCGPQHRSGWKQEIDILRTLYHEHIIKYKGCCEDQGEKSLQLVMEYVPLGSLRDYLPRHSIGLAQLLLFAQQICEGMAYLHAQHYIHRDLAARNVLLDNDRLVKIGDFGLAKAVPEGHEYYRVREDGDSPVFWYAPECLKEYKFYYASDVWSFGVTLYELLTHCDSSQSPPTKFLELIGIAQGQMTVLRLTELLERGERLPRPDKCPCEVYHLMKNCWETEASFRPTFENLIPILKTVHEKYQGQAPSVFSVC

Calls of active or inactive are those of the source. The rule behind the calls is not given here.

For the molecule `CCNc1cc(-c2ccc(NC(=O)Nc3cccc(Cl)c3)cc2C(F)(F)F)ccn1`, in [1], the inhibition (commonly the drop in the measured response relative to a control, in per cent) came out at 82.7%. In addition, the IC50 (as a rule, the concentration at which inhibition is half-maximal) in [2] is 0.085 µM; with BT-483 [3], 13.3 µM. Further, the Activity with BT-483 [4] came to 8.64%; in test [6] it was 83%; in [7] it was 87%; in test [8], 85%; in test [9], 97%; in test [10], 65%. Moreover, the result in the test with BT-483 [5] was Active.
